Calls of active or inactive are those of the source. No cut-off for these calls is given here.
Legend:
[1] = molecular target: GABA-A receptor; anion channel; test: Displacement of [3H]muscimol from GABA(A) receptor in Sprague-Dawley rat cortical synaptic membranes by liquid scintillation counting
[2] = molecular target: T1, Gamma-aminobutyric acid receptor subunit rho-1 (Homo sapiens, UniProt P24046); test: Agonist activity at recombinant human GABA-A rho-1 receptor transiently expressed in human tsA201 cells incubated for 30 mins and measured up to 90 secs by FMP dye based FLIPR membrane potential blue assay; type: cell-based
[3] = molecular target: T2, GABA-A receptor; alpha-1/beta-2/gamma-2 (Homo sapiens, UniProt P14867+P18507+P47870); test: (§1) Agonist activity at recombinant human GABA-A alpha1beta2gamma2S receptor transiently expressed in human tsA201 cells incubated for 30 mins and measured up to 90 secs by FMP dye based FLIPR membrane potential blue assay; type: cell-based
T2 sequence (P14867 whole entry): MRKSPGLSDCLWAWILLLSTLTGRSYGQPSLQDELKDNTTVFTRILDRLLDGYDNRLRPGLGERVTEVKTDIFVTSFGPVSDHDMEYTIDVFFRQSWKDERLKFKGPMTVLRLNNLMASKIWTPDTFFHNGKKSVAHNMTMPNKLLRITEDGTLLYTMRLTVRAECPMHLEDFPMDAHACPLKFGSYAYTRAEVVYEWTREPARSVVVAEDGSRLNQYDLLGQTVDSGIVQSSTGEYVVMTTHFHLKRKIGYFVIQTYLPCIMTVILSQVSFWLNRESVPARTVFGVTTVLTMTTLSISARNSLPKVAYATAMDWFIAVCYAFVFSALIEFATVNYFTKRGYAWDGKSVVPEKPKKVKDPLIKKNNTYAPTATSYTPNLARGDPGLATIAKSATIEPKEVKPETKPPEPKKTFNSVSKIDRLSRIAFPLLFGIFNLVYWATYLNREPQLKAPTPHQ
T2 sequence (P47870 whole entry): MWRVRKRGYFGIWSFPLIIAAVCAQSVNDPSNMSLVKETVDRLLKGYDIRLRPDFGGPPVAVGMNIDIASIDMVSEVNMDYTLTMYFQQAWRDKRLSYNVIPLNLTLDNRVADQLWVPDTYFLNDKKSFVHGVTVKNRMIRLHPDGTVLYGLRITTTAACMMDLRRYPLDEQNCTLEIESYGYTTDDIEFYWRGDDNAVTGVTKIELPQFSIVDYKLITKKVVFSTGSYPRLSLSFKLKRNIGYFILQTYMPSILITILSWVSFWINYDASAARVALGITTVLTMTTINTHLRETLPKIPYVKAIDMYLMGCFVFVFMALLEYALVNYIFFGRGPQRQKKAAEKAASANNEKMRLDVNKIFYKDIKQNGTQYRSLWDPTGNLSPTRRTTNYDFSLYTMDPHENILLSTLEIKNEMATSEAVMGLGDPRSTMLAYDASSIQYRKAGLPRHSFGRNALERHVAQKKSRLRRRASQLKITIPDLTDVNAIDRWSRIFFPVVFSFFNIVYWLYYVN
T2 sequence (P18507 whole entry): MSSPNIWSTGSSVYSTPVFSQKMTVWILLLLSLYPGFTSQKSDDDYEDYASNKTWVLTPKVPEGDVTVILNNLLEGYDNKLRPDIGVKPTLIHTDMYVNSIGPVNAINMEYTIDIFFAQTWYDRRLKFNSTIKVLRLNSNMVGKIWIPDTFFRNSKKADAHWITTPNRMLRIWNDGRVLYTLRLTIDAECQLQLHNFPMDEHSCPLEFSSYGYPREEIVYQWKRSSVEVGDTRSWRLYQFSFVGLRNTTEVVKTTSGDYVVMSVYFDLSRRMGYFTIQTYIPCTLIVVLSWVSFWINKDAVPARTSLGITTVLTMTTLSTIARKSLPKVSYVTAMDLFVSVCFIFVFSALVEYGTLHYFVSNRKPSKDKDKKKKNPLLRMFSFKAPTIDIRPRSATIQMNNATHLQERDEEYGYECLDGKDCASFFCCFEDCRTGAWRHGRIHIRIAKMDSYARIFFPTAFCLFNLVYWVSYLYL

[4] = molecular target: T3, GABA-A receptor; alpha-1/beta-2/gamma-2 (Homo sapiens) (UniProt P14867+P47870+P18507); test: Agonist activity at recombinant human GABA-A alpha1beta2gamma2S receptor transiently expressed in human tsA201 cells assessed as GABA-induced maximum response incubated for 30 mins and measured up to 90 secs by FMP dye based FLIPR membrane potential blue assay relative to GABA; type: cell-based
[5] = cells; type: cell-based; settings: Homo sapiens, tsA201, 0.5 h
[6] = species: Homo sapiens; test: Agonist activity at recombinant human GABA-A alpha3beta2gamma2S receptor transiently expressed in human tsA201 cells assessed as GABA-induced maximum response incubated for 30 mins and measured up to 90 secs by FMP dye based FLIPR membrane potential blue assay relative to GABA; type: cell-based
[7] = molecular target: Gamma-aminobutyric acid receptor subunit alpha-4/beta-2/gamma-2 (Homo sapiens, UniProt P18507+P47870+P48169); test: (§2) Agonist activity at recombinant human GABA-A alpha4beta2gamma2S receptor transiently expressed in human tsA201 cells incubated for 30 mins and measured up to 90 secs by FMP dye based FLIPR membrane potential blue assay; type: cell-based
[8] = molecular target: T4, Gamma-aminobutyric acid receptor subunit alpha-4/beta-2/gamma-2 (Homo sapiens, UniProt P47870+P18507+P48169); test: Agonist activity at recombinant human GABA-A alpha4beta2gamma2S receptor transiently expressed in human tsA201 cells assessed as GABA-induced maximum response incubated for 30 mins and measured up to 90 secs by FMP dye based FLIPR membrane potential blue assay relative to GABA; type: cell-based
[9] = molecular target: T5, Gamma-aminobutyric acid receptor subunit alpha-5/beta-2/gamma-2 (Homo sapiens, UniProt P18507+P31644+P47870); test: Agonist activity at recombinant human GABA-A alpha5beta2gamma2S receptor transiently expressed in human tsA201 cells incubated for 30 mins and measured up to 90 secs by FMP dye based FLIPR membrane potential blue assay; type: cell-based
T5 sequence (P47870 whole entry): T2 sequence (P47870 whole entry)
T5 sequence (P18507 whole entry): T2 sequence (P18507 whole entry)
T5 sequence (P31644 whole entry): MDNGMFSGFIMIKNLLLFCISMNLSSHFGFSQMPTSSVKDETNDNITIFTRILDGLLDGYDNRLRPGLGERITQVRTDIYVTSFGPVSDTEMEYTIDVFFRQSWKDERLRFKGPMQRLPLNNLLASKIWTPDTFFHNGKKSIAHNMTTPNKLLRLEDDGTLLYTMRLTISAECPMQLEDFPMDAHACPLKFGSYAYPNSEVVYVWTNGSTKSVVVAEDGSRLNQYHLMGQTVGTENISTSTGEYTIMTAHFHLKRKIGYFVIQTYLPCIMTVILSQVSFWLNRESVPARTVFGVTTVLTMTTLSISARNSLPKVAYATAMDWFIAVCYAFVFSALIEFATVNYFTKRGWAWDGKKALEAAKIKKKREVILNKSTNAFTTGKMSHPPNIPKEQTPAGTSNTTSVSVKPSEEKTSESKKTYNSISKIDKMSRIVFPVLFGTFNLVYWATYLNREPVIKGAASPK

[10] = molecular target: Gamma-aminobutyric acid receptor subunit alpha-5/beta-2/gamma-2 (Homo sapiens) (UniProt P47870+P18507+P31644); test: Agonist activity at recombinant human GABA-A alpha5beta2gamma2S receptor transiently expressed in human tsA201 cells assessed as GABA-induced maximum response incubated for 30 mins and measured up to 90 secs by FMP dye based FLIPR membrane potential blue assay relative to GABA; type: cell-based
[11] = molecular target: T1, Gamma-aminobutyric acid receptor subunit rho-1; test: Agonist activity at recombinant human GABA-A rho-1 receptor transiently expressed in human tsA201 cells assessed as GABA-induced maximum response incubated for 30 mins and measured up to 90 secs by FMP dye based FLIPR membrane potential blue assay relative to GABA; type: cell-based
[12] = molecular target: T3, GABA-A receptor; alpha-1/beta-2/gamma-2 (Homo sapiens); test: as §1; type: cell-based
[13] = molecular target: T6, GABA-A receptor; alpha-1/beta-2/gamma-2 (Homo sapiens, UniProt P14867+P47870+P18507); test: as §1; type: cell-based
T6 sequence (P14867 whole entry): T2 sequence (P14867 whole entry)
T6 sequence (P47870 whole entry): T2 sequence (P47870 whole entry)
T6 sequence (P18507 whole entry): T2 sequence (P18507 whole entry)

[14] = molecular target: T4, Gamma-aminobutyric acid receptor subunit alpha-4/beta-2/gamma-2; test: as §2; type: cell-based
[15] = molecular target: T3, GABA-A receptor; alpha-1/beta-2/gamma-2 (Homo sapiens); test: Agonist activity at recombinant human GABA-A alpha1beta2gamma2S receptor transiently expressed in human tsA201 cells at >= 100 uM incubated for 30 mins and measured up to 90 secs by FMP dye based FLIPR membrane potential blue assay; type: cell-based
[16] = molecular target: T4, Gamma-aminobutyric acid receptor subunit alpha-4/beta-2/gamma-2; test: Agonist activity at recombinant human GABA-A alpha4beta2gamma2S receptor transiently expressed in human tsA201 cells at >= 300 uM incubated for 30 mins and measured up to 90 secs by FMP dye based FLIPR membrane potential blue assay; type: cell-based
[17] = molecular target: T1, Gamma-aminobutyric acid receptor subunit rho-1; test: Agonist activity at recombinant human GABA-A rho-1 receptor transiently expressed in human tsA201 cells at 300 uM incubated for 30 mins and measured up to 90 secs by FMP dye based FLIPR membrane potential blue assay; type: cell-based
[18] = molecular target: T1, Gamma-aminobutyric acid receptor subunit rho-1; test: Antagonist activity at recombinant human GABA-A rho-1 receptor transiently expressed in human tsA201 cells incubated for 30 mins and measured up to 90 secs by FMP dye based FLIPR membrane potential blue assay; type: cell-based
[19] = Ionization constant, pKa2 of the compound at 1 mM by potentiometric titration assay; type: physicochemical
[20] = species: Homo sapiens; test: Agonist activity at recombinant human GABA-A alpha3beta2gamma2S receptor transiently expressed in human tsA201 cells at >= 100 uM incubated for 30 mins and measured up to 90 secs by FMP dye based FLIPR membrane potential blue assay; type: cell-based
[21] = molecular target: T4, Gamma-aminobutyric acid receptor subunit alpha-4/beta-2/gamma-2; test: Agonist activity at recombinant human GABA-A alpha4beta2gamma2S receptor transiently expressed in human tsA201 cells at >= 100 uM incubated for 30 mins and measured up to 90 secs by FMP dye based FLIPR membrane potential blue assay; type: cell-based
[22] = molecular target: T1, Gamma-aminobutyric acid receptor subunit rho-1; test: Agonist activity at recombinant human GABA-A rho-1 receptor transiently expressed in human tsA201 cells at >= 100 uM incubated for 30 mins and measured up to 90 secs by FMP dye based FLIPR membrane potential blue assay; type: cell-based
[23] = species: Homo sapiens

T1 sequence (P24046 whole entry): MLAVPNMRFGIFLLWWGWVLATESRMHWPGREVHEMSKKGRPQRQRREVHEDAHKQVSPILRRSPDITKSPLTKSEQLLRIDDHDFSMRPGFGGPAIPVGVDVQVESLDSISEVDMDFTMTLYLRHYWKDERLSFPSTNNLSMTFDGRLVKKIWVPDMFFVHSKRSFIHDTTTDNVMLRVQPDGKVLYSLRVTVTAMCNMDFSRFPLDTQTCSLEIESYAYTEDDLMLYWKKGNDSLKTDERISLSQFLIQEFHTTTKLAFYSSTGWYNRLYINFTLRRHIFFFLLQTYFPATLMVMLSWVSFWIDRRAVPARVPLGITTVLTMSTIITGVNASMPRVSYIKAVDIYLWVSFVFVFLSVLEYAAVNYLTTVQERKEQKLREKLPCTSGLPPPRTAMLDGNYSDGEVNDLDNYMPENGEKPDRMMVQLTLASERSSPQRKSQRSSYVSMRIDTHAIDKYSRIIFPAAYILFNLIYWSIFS
Sequence of Gamma-aminobutyric acid receptor subunit alpha-4/beta-2/gamma-2 (Homo sapiens, UniProt P18507+P47870+P48169) (P48169 whole entry, one chain of several): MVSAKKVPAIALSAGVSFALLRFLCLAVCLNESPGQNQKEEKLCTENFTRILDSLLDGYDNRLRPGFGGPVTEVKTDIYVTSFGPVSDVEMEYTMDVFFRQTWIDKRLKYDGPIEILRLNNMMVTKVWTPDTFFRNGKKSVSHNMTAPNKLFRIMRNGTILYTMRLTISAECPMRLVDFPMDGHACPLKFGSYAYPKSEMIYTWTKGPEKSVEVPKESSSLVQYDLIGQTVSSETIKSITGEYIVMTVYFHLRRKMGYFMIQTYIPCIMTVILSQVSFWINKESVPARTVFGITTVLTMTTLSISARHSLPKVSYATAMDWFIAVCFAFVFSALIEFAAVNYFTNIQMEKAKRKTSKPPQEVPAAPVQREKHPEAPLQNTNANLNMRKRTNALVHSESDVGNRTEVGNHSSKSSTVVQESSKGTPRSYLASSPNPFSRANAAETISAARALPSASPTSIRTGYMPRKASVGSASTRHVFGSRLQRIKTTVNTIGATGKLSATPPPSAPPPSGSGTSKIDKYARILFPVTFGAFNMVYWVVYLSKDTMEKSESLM
T4 sequence (P48169 whole entry, one chain of several): as above

SMILES | Ki [1] | EC50 ([2]; read-out: EC50) | EC50 [3] | Rmax [4] | EC50 ([5]; read-out: EC50) | EC50 ([5]; read-out: pEC50 (converted)) | Rmax [6] | EC50 ([7]; read-out: EC50) | Rmax [8] | EC50 [9] | Rmax [10] | Rmax [11] | pEC50 [12] | EC50 [13] | EC50 [14] | pEC50 [14] | Activity [15] | pKa at 1000 µM [19] | Activity [22] | further results
NC1=N[C@@H](CC(=O)O)CS1 | 0.36 µM | 3.7 µM | 12 µM | 65% | 2.4 µM | 2.34 µM | 102% | 8.6 µM | 53% | 0.56 µM | 103% | 34% | – | – | – | – | – | – | – | –
CC1(CC(=O)O)CSC(N)=N1 (configuration not stated) | 2.2 µM | – | – | inactive | 26 µM | 25.7 µM | 80% | – | inactive | 4.5 µM | 92% | – | inactive | Not Active | Not Active | inactive | Active | – | – | Activity [16]: Active; Activity [17]: inactive; IC50 [18]: 300 µM
Nc1nc(CC(=O)O)cs1 | 32 µM | – | – | inactive | – | – | inactive | – | inactive | 24 µM | 85% | inactive | inactive | Not Active | Not Active | inactive | Active | 6.08 | Active | EC50 [2]: Not Active; pEC50 [2]: inactive; Activity [20]: Active; Activity [21]: Active; pEC50 [23]: inactive
O=C(O)Cc1c[nH]cn1 [IMIDAZOLE ACETIC ACID] | – | 4.6 µM | – | 46% | 8.1 µM | 8.13 µM | 89% | 19 µM | 81% | 1.8 µM | 92% | 46% | – | – | – | – | – | 7.13 | Active | –
NC1=N[C@H](CC(=O)O)CS1 | 0.059 µM | 5.4 µM | 1.5 µM | 97% | 0.37 µM | 0.372 µM | 98% | 0.59 µM | 105% | 0.12 µM | 104% | 75% | – | – | – | – | – | – | – | EC50 ([7]; read-out: pEC50 (converted)): 5.89 µM
